Results on three compounds are retold here after EP0587396A1, “Use of hypoxoside derivatives for the treatment of viral infections” (VIROSTAT (NA) NV, priority 1992, dated 1994).

Like-named read-outs stand apart in the source and are kept apart here.

Series [1] concerns human immunodeficiency virus type 1 (HIV-1). As to the kind of experiment: Inhibition of HIV-1 proliferation in PHA-activated human PBL's (p24 core protein by Sandwich ELISA, HIV RNA by labelled DNA probe hybridization). The format is cell-based. To be noted: for inhibition of p24 core protein production: 10 ng/mℓ. On the procedure: Compounds I - XXVIII were subjected to in vitro testing for inhibition of human immunodeficiency virus type 1 (HIV-1) proliferation as follows:
Human peripheral blood lymphocytes (PBL's) obtained by density gradient centrifugation of blood from healthy volunteers at a blood bank were pooled and used for the propagation of HIV-1 in vitro.
The PBL's were polyclonally activated with phytohaemagglutinin (PHA) and subjected to quality controls whereby their viability was tested with Trypan blue exclusion and the expression of activation antigens, CD4⁺ and CD25⁺ was measured by immunofluorescence. Prior to adding the test substance, the activated PBL's were exposed to a standardized titre of HIV-1 virus and after incubation for 60 minutes the cells were washed twice and plated into microtitre plates at a concentration of 2X10⁶ cells/well. The medium contained interleukin-2 and in control wells the virus produced between 50 and 100 ng/mℓ of p24 core protein on day 4. The test substance was added to these cultures either in water or dimethyl sulphoxide (DMSO) depending on solubility characteristics. The final DMSO concentration, when used, was always 1% v/v.
HIV replication was measured as the production of p24 core protein and the production of HIV RNA on days 2, 3 and 4, or on days 3, 4, 5 and 6. Core protein p24 was measured using 'Sandwich ELISA' technology using inter alia a monoclonal antibody against p24 core protein. The HIV RNA was measured using a specific labelled DNA probe against HIV RNA and the process of hybridization.
Results were expressed as percent inhibition of HIV-1 p24 core protein production or RNA production on days 3, 4 or 6.
In each test, cells were also exposed to HIV-1 and 3'-azido-3'-deoxythymidine (also known as Zidovudine or AZT) at 100, 10, 1 and 0.1 ng/mℓ. This was a positive control and compounds tested were compared to the inhibitory effect of 10 ng/mℓ AZT.
In all of the following Tables, percentage inhibition refers to inhibition of p24 core protein production and HIV RNA production relative to infected controls. Percentage AZT inhibition refers to inhibition caused by 10 ng/mℓ AZT at the end of the experiment, i.e. after 4 or 6 days.

Series [2] has as its system CD4⁺ cells. Conditions: standard doses (250 mg/4 hours) and reduced doses (100 mg/4 hours) for 30 months; Fisch et al; cited from earlier work.
The nature of series [3]: Toxicity: lymphocyte proliferation assay with MTT in the HIV-1 infected PBL cultures. It counts as cell-based. To be noted: human, pbls. On the procedure:
Possible toxic effects of the test substances were measured by viability testing using Trypan blue or a proliferation assay using3-(4,5-dimethylthiazol-2-yl)-2,5-diphenyl-2H-tetrazolium bromide (MTT) on day 4 or day 6 after initiation of the experiment (Borenfreund et al: Toxicol. In Vitro, 1988, 2, 1-6).
The toxicity of the drug was expressed as a percentage inhibition of lymphocyte proliferation as measured with MTT and compared with controls receiving the virus but no drug.

With `Cc1cn([C@H]2C[C@H](N=[N+]=[N-])[C@@H](CO)O2)c(=O)[nH]c1=O` [AZT, 3'-azido-3'-deoxythymidine, reference compound], the “inhibition of p24 core protein production” value was 20% in series [1] (positive control of Table 2 (6 days, standard titre)); 50% in series [1] (positive control of Table 4 (after 3 days)); 50% in series [1] (positive control of Table 5 (after 6 days)); 20% in series [1] (positive control of Table 6 (6 days, standard viral titre)); 50% in series [1] (positive control of Table 8 (3 days incubation)); 50% in series [1] (positive control of Table 12 (3 days incubation)). Besides, the inhibition at 0.01 µg/mL in series [1] (Human immunodeficiency virus 1, 72 h, read-out: inhibition of HIV-RNA production, 10 ng/mℓ, positive control of Table 4 (after 3 days)) worked out at 46%; in series [1] (Human immunodeficiency virus 1, 72 h, read-out: inhibition of HIV-RNA production, 10 ng/mℓ, positive control of Table 8 (3 days incubation)), 46%; in series [1] (Human immunodeficiency virus 1, 72 h, read-out: inhibition of HIV-RNA production, 10 ng/mℓ, positive control of Table 12 (3 days incubation)), 46%; in series [1] (Human immunodeficiency virus 1, 96 h, read-out: inhibition of HIV RNA production, 10 ng/mℓ, positive control of the crude extract test (4 days)), 96%; in series [1] (Human immunodeficiency virus 1, 96 h, read-out: inhibition of HIV-RNA production, 10 ng/mℓ, day 4, positive control of Table 13), 100%; in series [1] (Human immunodeficiency virus 1, 96 h, read-out: inhibition of HIV-RNA production, 10 ng/mℓ, positive control of Table 11 (4 days)), 97%. Further, the inhibition at 0.01 µg/mL in series [1] (Human immunodeficiency virus 1, 144 h, read-out: inhibition of HIV-RNA production, 10 ng/mℓ, day 6, positive control of Table 13) was 100%; in series [1] (Human immunodeficiency virus 1, 144 h, read-out: inhibition of HIV-RNA production, 10 ng/mℓ, positive control of Table 2 (6 days, standard titre)) it was 68%; in series [1] (Human immunodeficiency virus 1, 144 h, read-out: inhibition of HIV-RNA production, 10 ng/mℓ, positive control of Table 5 (after 6 days)) it was 46%; in series [1] (Human immunodeficiency virus 1, 144 h, read-out: inhibition of HIV-RNA production, 10 ng/mℓ, positive control of Table 6 (6 days, standard viral titre)) it was 68%; in series [1] (Human immunodeficiency virus 1, 144 h, read-out: inhibition of HIV-RNA production, 10 ng/mℓ, positive control of Table 8 continued (6 days incubation)), 92%; in series [1] (Human immunodeficiency virus 1, 144 h, read-out: inhibition of HIV-RNA production, 10 ng/mℓ, positive control of Table 9 (6 days)) it was 92%. Besides, the inhibition at 0.01 µg/mL in series [1] (Human immunodeficiency virus 1, 144 h, read-out: inhibition of HIV-RNA production, 10 ng/mℓ, positive control of Table 10 (6 days)) amounted to 92%; in series [1] (Human immunodeficiency virus 1, read-out: inhibition of HIV-RNA production, 10 ng/mℓ, positive control of Table 7 (ten-fold dilution of standard viral titre)) it was 99%; in series [1] (Human immunodeficiency virus 1, read-out: inhibition of HIV-RNA, 10 ng/mℓ, positive control of Table 3 (viral titre lowered ten-fold)) it was 99%. Further, in series [2], the “transient mean increase of CD4⁺ cells” value is recorded as 25 cells/mm³ of blood.

`OC[C@H]1O[C@@H](Oc2ccc(C#CC/C=C/c3ccc(O[C@@H]4O[C@H](CO)[C@@H](O)[C@H](O)[C@H]4O)c(O)c3)cc2O)[C@H](O)[C@@H](O)[C@@H]1O` [Compound V, E-1,5-bis(3'-hydroxy-4'-O-β-D-glucopyranosylphenyl)pent-4-en-1-yne]: the “% inhibition:p24 core protein” value turned out to be 5% in series [1] (6.25 µg/mℓ, dissolved in water, after 6 days, standard titre of HIV-1); 5% in series [1] (12.5 µg/mℓ, dissolved in water, after 6 days, standard titre of HIV-1); 9% in series [1] (25 µg/mℓ, dissolved in water, after 6 days, standard titre of HIV-1); 90% in series [1] (25 µg/ℓ, viral titre lowered ten-fold). Moreover, the inhibition at 6.25 µg/mL in series [1] (Human immunodeficiency virus 1, 144 h, read-out: % inhibition: HIV-RNA, 6.25 µg/mℓ, dissolved in water, after 6 days, standard titre of HIV-1) came to 42%. The inhibition at 12.5 µg/mL in series [1] (Human immunodeficiency virus 1, 144 h, read-out: % inhibition: HIV-RNA, 12.5 µg/mℓ, dissolved in water, after 6 days, standard titre of HIV-1) was 65%. In addition, in series [1] (Human immunodeficiency virus 1, 144 h, read-out: % inhibition: HIV-RNA, 25 µg/mℓ, dissolved in water, after 6 days, standard titre of HIV-1), the inhibition at 25 µg/mL was determined as 83%. The inhibition at 50 µg/mL in series [1] (Human immunodeficiency virus 1, 144 h, read-out: % inhibition: HIV-RNA, 50 µg/mℓ, dissolved in water, after 6 days, standard titre of HIV-1) stood at 100%. In series [1] (Human immunodeficiency virus 1, read-out: % inhibition:HIV-RNA, 6.25 µg/ℓ, viral titre lowered ten-fold), the inhibition at 0.00625 µg/mL worked out at 0%. Further, in series [1] (Human immunodeficiency virus 1, read-out: % inhibition:HIV-RNA, 12.5 µg/ℓ, viral titre lowered ten-fold), the inhibition at 0.0125 µg/mL is 11%. Also, in series [1] (Human immunodeficiency virus 1, read-out: % inhibition:HIV-RNA, 25 µg/ℓ, viral titre lowered ten-fold), the inhibition at 0.025 µg/mL is 97%. Further, in series [1] (Human immunodeficiency virus 1, read-out: % inhibition:HIV-RNA, 50 µg/ℓ, viral titre lowered ten-fold), the inhibition at 0.05 µg/mL turned out to be 99%. The viability worked out at 94% in series [3] (6.25 µg/mℓ, dissolved in water, standard titre of HIV-1, read-out: Proliferation as a percentage of control value); 94% in series [3] (6.25 µg/ℓ, viral titre lowered ten-fold, read-out: Proliferation as a percentage of control value); 94% in series [3] (12.5 µg/mℓ, dissolved in water, standard titre of HIV-1, read-out: Proliferation as a percentage of control value); 94% in series [3] (12.5 µg/ℓ, viral titre lowered ten-fold, read-out: Proliferation as a percentage of control value); 93% in series [3] (25 µg/mℓ, dissolved in water, standard titre of HIV-1, read-out: Proliferation as a percentage of control value); 93% in series [3] (25 µg/ℓ, viral titre lowered ten-fold, read-out: Proliferation as a percentage of control value). In addition, the viability in series [3] (50 µg/mℓ, dissolved in water, standard titre of HIV-1, read-out: Proliferation as a percentage of control value) came to 82%; in series [3] (50 µg/ℓ, viral titre lowered ten-fold, read-out: Proliferation as a percentage of control value) it was 82%.

Regarding `O=S(=O)(O)Oc1ccc(C#CC/C=C/c2ccc(OS(=O)(=O)O)cc2)cc1` [Compound XVIII], the “% inhibition:p24 core protein” value in series [1] (50 µg/mℓ, after 6 days) was 79%. Also, in series [1] (Human immunodeficiency virus 1, 144 h, read-out: % inhibition:HIV-RNA, 50 µg/mℓ, after 6 days), the inhibition at 50 µg/mL worked out at 87%. Besides, the inhibition at 100 µg/mL in series [1] (Human immunodeficiency virus 1, 144 h, read-out: % inhibition:HIV-RNA, 100 µg/mℓ, after 6 days) was 100%. The viability in series [3] (50 µg/mℓ, Table 10 (6 days), read-out: Proliferation as a percentage of control value) was found to be 63%; in series [3] (100 µg/mℓ, Table 10 (6 days), read-out: Proliferation as a percentage of control value), 50%.
